Like-named read-outs stand apart in the source and are kept apart here.
What was measured:
[1] = system: P-AKT (Ser^473) (mTORC2) in human micro vascular endothelial cells (HMEC); assay: Western blot of P-AKT (Ser473) (mTORC2) in HMEC exposed to APA IgG; format: cell-based; conditions: HMEC pretreated one hour with inhibitor (PP242 0.5 μM; LY294002 20 μM), then APA IgG 5 minutes
Experimental: (§1) All experiments were performed in duplicates.
(§2) Western blots were performed as previously described^28. […] Images were acquired using Fusion FX7 system (Vilber Loumart) and analysed using Bio-1D software (Vilber Loumart).

[2] = system: P-S6RP (mTORC1) in human micro vascular endothelial cells (HMEC); assay: Western blot of P-S6RP (mTORC1) in HMEC exposed to APA IgG; format: cell-based; conditions: HMEC pretreated one hour with inhibitor (PP242 0.5 μM), then APA IgG 5 minutes
Experimental: as §1, §2

[3] = Cyclosporine, tacrolimus and sirolimus serum levels in transplant recipients; format: in vivo; conditions: human, 12 months post-transplantation, mean ± SEM
Experimental: (§3) The serum creatinine level was measured using a Synchron Cx4 autoanalyzer (Beckman Coulter, Villepinte, France). The glomerular filtration rate (GFR) was evaluated by iohexol clearance at 3- and 12-months post transplant as previously described^25. Cyclosporine and tacrolimus serum levels were determined by radioimmunoas say and sirolimus serum levels by high-performance liquid chromatography^26.

[4] = system: kidney allograft microcirculation inflammation; assay: Microcirculation inflammation in kidney biopsies, Banff classification; format: in vivo, human; conditions: Tx aPL+ Siro+, mean ± SEM
Text: (§4) Biopsy samples and morphological analysis: Human kidney biopsies were either fixed, in alcoholic Bouin's solution (native kidneys) or in alcohol-formalin-acetic acid solution (transplant kidneys). Carotid and left anterior descending arteries from autopsy cases were fixed in formalin. All samples were then embedded in paraffin. Four-μm sections were stained with Periodic Acid Schiff (PAS), Masson's trichrome and hematoxyin and eosin (H&E). Schiff (PAS), Masson's trichrome and hematoxylin and eosin (HE). Kidney biopsies were independently examined and scored by two pathologists at Necker Hospital. Lesions related to APS-nephropathy were quantified according to the usual criteria^12. For each biopsy, the number of vessels displaying fibrous intimal hyperplasia were counted in all the fields of the section, and the data were expressed as the number of damaged vessels for the total number of vascular sections. Lesions related to allograft nephropathy were evaluated according to the Banff classification^27, which takes into account glomerular, tubular and interstitial changes. Autopsy cases were carefully examined by two pathologists at La Pitie Salpetiere Hospital. Vascular lesions, and in particular fibrous intimal hyperplasia, were searched for and characterized in all the tissues.

[5] = system: kidney transplant recipients with antiphospholipid antibodies (Tx APA+); assay: Kidney transplant recipients cohort: vascular lesions, mGFR, allograft survival; format: in vivo, human
Text: Briefly, the inventors studied a first group of transplant recipients with APA+ (Tx APA+, n=37) and a control group of transplants recipients without APA− (Tx APA−, n=59) engrafted during the same period. These patients were followed in the Transplant unit of Necker Hospital. All patients with functioning allograft had surveillances biopsies and measured glomerular filtration rate (mGFR) at 3- and 12-months post transplantation. Patients had similar immunosuppressive regimen consisting in steroids, purine inhibitor and calcineurine inhibitor, except for thirteen and ten patients in the Tx APA− and Tx APA+ group, respectively, that received sirolimus starting at day 0 instead of calcineurin inhibitor.
as §3
as §4, with “Four-μm sections were stained with Periodic Acid Schiff (PAS), Masson's trichrome and hematoxyin and eosin (H&E). Schiff (PAS), Masson's trichrome and hematoxylin and eosin (HE).” left out, “Autopsy cases were carefully examined by two pathologists at La Pitie Salpetiere Hospital. Vascular lesions, and in particular fibrous intimal hyperplasia, were searched for and characterized in all the tissues.” left out

O=c1cc(N2CCOCC2)oc2c(-c3ccccc3)cccc12 [LY294002, 2-(4-Morpholinyl)-8-phenyl-4H-1-benzopyran-4-one]
APA-induced AKT phosphorylation / activation of the AKT pathway [1]: completely prevent

CC(C)n1nc(-c2cc3cc(O)ccc3[nH]2)c2c(N)ncnc21 [PP242]
APA-induced S6RP phosphorylation [2]: completely abolished

C=CC[C@@H]1/C=C(\C)C[C@H](C)C[C@H](OC)[C@H]2O[C@@](O)(C(=O)C(=O)N3CCCC[C@H]3C(=O)O[C@H](/C(C)=C/[C@@H]3CC[C@@H](O)[C@H](OC)C3)[C@H](C)[C@@H](O)CC1=O)[C@H](C)C[C@@H]2OC [Tacrolimus]
concentration at 12 months ([3]; Tx aPL+ Sirolimus− (n = 27), read-out: 12-Mo Tacrolimus trough levels): 10.3 ± 5.9 ng/mL | concentration at 12 months ([3]; Tx aPL− (n = 59), read-out: 12-Mo Tacrolimus trough levels): 10 ± 6 ng/mL

CO[C@H]1C[C@@H]2CC[C@@H](C)[C@@](O)(O2)C(=O)C(=O)N2CCCC[C@H]2C(=O)O[C@H]([C@H](C)C[C@@H]2CC[C@@H](O)[C@H](OC)C2)CC(=O)[C@H](C)/C=C(\C)[C@@H](O)[C@@H](OC)C(=O)[C@H](C)C[C@H](C)/C=C/C=C/C=C/1C [sirolimus, rapamycin]
C4d (C4 deposits), Banff score ([4]; Month 3 post-Tx): 0.2 ± 0.4 | g (Glomerulitis), Banff score ([4]; Month 3 post-Tx): 0.1 ± 0.4 | ptc (Peritubular Capillaritis), Banff score ([4]; Month 3 post-Tx): 0.1 ± 0.4 | Banff microcirculation inflammation score ([4]; Month 12 post-Tx): 0.1 ± 0.3 | C4d (C4 deposits), Banff score ([4]; Month 12 post-Tx): 0.1 ± 0.3 | ptc (Peritubular Capillaritis), Banff score ([4]; Month 12 post-Tx): 0.1 ± 0.3 | concentration at 12 months ([3]; Tx aPL+ Sirolimus+ (n = 10), read-out: 12-Mo Sirolimus levels): 18 ± 9 ng/mL | concentration at 12 months ([3]; Tx aPL− (n = 59), read-out: 12-Mo Sirolimus levels): 16 ± 2 ng/mL | measured glomerular filtration rate (mGFR) ([5]; Tx APA+ Siro+ patients, 12 months post transplantation, 39.6±14.6 in APA+ Siro−): 56 ± 10.8 mL/min | death-censored allograft survival ([5]; Tx aPL+ recipients, 12% without sirolimus): 70% | allograft survival rate ([5]; transplant recipients with antiphospholipid antibodies, 8% without sirolimus, up to 144 months post transplantation): 70%

Reference: US20150258127A1, “METHODS FOR PREVENTING ANTIPHOSPHOLIPID SYNDROME (APS)” (INSERM (INSTITUT NATIONAL DE LA SANTÉ ET DE LA RECHERCHE …, priority 2012, published 2015)
